The results in this text go back to PubChem BioAssay AID2060357 (Molecular Pharmacology Branch, DTP, NCI, 2025).

This assay has as its system 292921-168-R-J2-PDC spheroids with HUVEC/MSC, viability. The assay is described as follows: Anticancer human tumor 292921-168-R-J2-PDC patient-derived pancreatic carcinoma cell line growth inhibition [TAK]. The following applies: for viability, T/C: stronger effect = lower value. An outline of the steps: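 Tumor cells were grown as spheroids with HUVEC and hMSC (60:25:15) and treated with targeted agents combined with TAK-243 or ipatasertib. Drugs were tested in half-log steps down from near the clinical Cmax, or from 10 microM where Cmax was unknown.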

The mark [1] stands for this setting: curve of first compound, second compound 0.3 µM.
Where [2] appears, read: curve of first compound, second compound 0.949 µM.
Where [3] appears, read: curve of first compound, second compound 3 µM.
[4] abbreviates: curve of first compound, second compound 9.49 µM.
Setting [5] is: curve of first compound, second compound 30 µM.
Setting [6] is: second compound 0.3 µM, first compound 0.0316 µM.
Where [7] appears, read: second compound 0.3 µM, first compound 0.1 µM.
Setting [8] is: second compound 0.949 µM, first compound 0.0316 µM.
The mark [9] stands for this setting: second compound 0.949 µM, first compound 0.1 µM.
Where [10] appears, read: second compound 3 µM, first compound 0.0316 µM.
The mark [11] stands for this setting: second compound 3 µM, first compound 0.1 µM.
The mark [12] stands for this setting: second compound 9.49 µM, first compound 0.0316 µM.
Setting [13] is: second compound 9.49 µM, first compound 0.1 µM.
Where [14] appears, read: second compound 30 µM, first compound 0.0316 µM.
The mark [15] stands for this setting: second compound 30 µM, first compound 0.1 µM.

The structures appear in SMILES notation. Several values for one entry are separate records, joined by “and”; a condition that tells them apart may be missing. Equal entries are not always repeated. Some results are limits rather than exact numbers.

In general, IC50 refers to the concentration needed to halve the response being measured. What is called viability, T/C is the result in the treated group divided by that in the control group, in per cent.
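Note: spheroids exposed to drugs for seven days before readout.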

As to `COC1CC2CCC(C)C(O)(O2)C(=O)C(=O)N2CCCCC2C(=O)OC(C(C)CC2CCC(OCCO)C(OC)C2)CC(=O)C(C)C=C(C)C(O)C(OC)C(=O)C(C)CC(C)C=CC=CC=C1C` (centres undefined) + CC(C)NCC(C(=O)N1CCN(c2ncnc3c2C(C)CC3O)CC1)c1ccc(Cl)cc1, the half-maximal inhibitory concentration (IC50) was 5.01 nM under setting [1]; 4.77 nM under setting [2]; 1.41 nM under setting [3]; under 0.316 nM under setting [4]; under 0.316 nM under setting [5]. The viability, T/C is, setting by setting: (second compound 0.3 µM, first compound 0.000316 µM) 64.3%; (second compound 0.3 µM, first compound 0.001 µM) 56.9%; (second compound 0.3 µM, first compound 0.00316 µM) 49.4%; (second compound 0.3 µM, first compound 0.01 µM) 50.6%; under setting [6], 45.3%; under setting [7], 46.1%. The viability, T/C (second compound 0.949 µM, first compound 0.000316 µM) is 65.7%; the viability, T/C (second compound 0.949 µM, first compound 0.001 µM) was 59.9%; the viability, T/C (second compound 0.949 µM, first compound 0.00316 µM) was 50.2%; the viability, T/C (second compound 0.949 µM, first compound 0.01 µM) is 46.6%; the viability, T/C under setting [8] is 44.9%; the viability, T/C under setting [9] was 45.2%. For the same compound, the viability, T/C (second compound 3 µM, first compound 0.000316 µM) is 60%; the viability, T/C (second compound 3 µM, first compound 0.001 µM) is 53.3%; the viability, T/C (second compound 3 µM, first compound 0.00316 µM) was 45.1%; the viability, T/C (second compound 3 µM, first compound 0.01 µM) was 42.4%; the viability, T/C under setting [10] is 43.8%; the viability, T/C under setting [11] was 41.6%. For the same compound, the viability, T/C is 47.9% (second compound 9.49 µM, first compound 0.000316 µM); 39.8% (second compound 9.49 µM, first compound 0.001 µM); 35.7% (second compound 9.49 µM, first compound 0.00316 µM); 33.2% (second compound 9.49 µM, first compound 0.01 µM); 32.7% under setting [12]; 32.9% under setting [13]. For the same compound, the viability, T/C is, setting by setting: (second compound 30 µM, first compound 0.000316 µM) 33.4%; (second compound 30 µM, first compound 0.001 µM) 30.6%; (second compound 30 µM, first compound 0.00316 µM) 29%; (second compound 30 µM, first compound 0.01 µM) 26.3%; under setting [14], 26.2%; under setting [15], 24.3%.

For the compound `CC(C)(C)c1nc(-c2cccc(NS(=O)(=O)c3c(F)cccc3F)c2F)c(-c2ccnc(N)n2)s1` + CC(C)NCC(C(=O)N1CCN(c2ncnc3c2C(C)CC3O)CC1)c1ccc(Cl)cc1, the half-inhibitory concentration (IC50) was 2270 nM under setting [1]; 1800 nM under setting [2]; 1250 nM under setting [3]; 682 nM under setting [4]; under 31.6 nM under setting [5]. In addition, the viability, T/C is, setting by setting: under setting [6], 94.8%; under setting [7], 94.7%; (second compound 0.3 µM, first compound 0.316 µM) 88.7%; (second compound 0.3 µM, first compound 1 µM) 74.2%; (second compound 0.3 µM, first compound 3.16 µM) 40.1%; (second compound 0.3 µM, first compound 10 µM) 20.5%. The viability, T/C reads like this: under setting [8], 85.2%; under setting [9], 92%; (second compound 0.949 µM, first compound 0.316 µM) 80.5%; (second compound 0.949 µM, first compound 1 µM) 66.9%; (second compound 0.949 µM, first compound 3.16 µM) 34.2%; (second compound 0.949 µM, first compound 10 µM) 17.9%. Also, the viability, T/C is, setting by setting: under setting [10], 83.4%; under setting [11], 85.9%; (second compound 3 µM, first compound 0.316 µM) 77.4%; (second compound 3 µM, first compound 1 µM) 55.2%; (second compound 3 µM, first compound 3.16 µM) 27.5%; (second compound 3 µM, first compound 10 µM) 15.8%. Further, the viability, T/C under setting [12] was 72.5%; the viability, T/C under setting [13] is 70.8%; the viability, T/C (second compound 9.49 µM, first compound 0.316 µM) is 64.7%; the viability, T/C (second compound 9.49 µM, first compound 1 µM) was 42.5%; the viability, T/C (second compound 9.49 µM, first compound 3.16 µM) is 22.7%; the viability, T/C (second compound 9.49 µM, first compound 10 µM) was 15.2%. For the same compound, the viability, T/C was 46.5% under setting [14]; 49.8% under setting [15]; 44.1% (second compound 30 µM, first compound 0.316 µM); 35.6% (second compound 30 µM, first compound 1 µM); 19.8% (second compound 30 µM, first compound 3.16 µM); 14.1% (second compound 30 µM, first compound 10 µM).

`Cc1nc(NC(=O)N2CCCC2C(N)=O)sc1-c1ccnc(C(C)(C)C(F)(F)F)c1` (centres undefined): the viability, T/C reads like this: (compound 0.0316 µM) 97.9% and 99.8%; (compound 0.1 µM) 78.4% and 71.1%; (compound 0.316 µM) 61.5% and 55.7%; (compound 1 µM) 44.4% and 38.9%; (compound 3.16 µM) 30.1% and 28.9%; (compound 10 µM) 20.4% and 22.4%. Further, the IC50 (curve of compound) was 672 nM and 422 nM.

In the case of `Cn1cnc2c(F)c(Nc3ccc(Br)cc3Cl)c(C(=O)NOCCO)cc21` + CC(C)NCC(C(=O)N1CCN(c2ncnc3c2C(C)CC3O)CC1)c1ccc(Cl)cc1, the IC50 reads like this: under setting [1], under 9.49 nM; under setting [2], under 9.49 nM; under setting [3], under 9.49 nM; under setting [4], under 9.49 nM; under setting [5], under 9.49 nM. The viability, T/C reads like this: (second compound 0.3 µM, first compound 0.00949 µM) 49.9%; (second compound 0.3 µM, first compound 0.03 µM) 36.5%; (second compound 0.3 µM, first compound 0.0949 µM) 30.9%; (second compound 0.3 µM, first compound 0.3 µM) 26.8%; (second compound 0.3 µM, first compound 0.949 µM) 21.4%; (second compound 0.3 µM, first compound 3 µM) 13.1%. The viability, T/C reads like this: (second compound 0.949 µM, first compound 0.00949 µM) 45.3%; (second compound 0.949 µM, first compound 0.03 µM) 34.7%; (second compound 0.949 µM, first compound 0.0949 µM) 30.9%; (second compound 0.949 µM, first compound 0.3 µM) 28.1%; (second compound 0.949 µM, first compound 0.949 µM) 21.5%; (second compound 0.949 µM, first compound 3 µM) 13%. Further, the viability, T/C is 39.5% (second compound 3 µM, first compound 0.00949 µM); 30.3% (second compound 3 µM, first compound 0.03 µM); 27.6% (second compound 3 µM, first compound 0.0949 µM); 24.1% (second compound 3 µM, first compound 0.3 µM); 17.3% (second compound 3 µM, first compound 0.949 µM); 11.8% (second compound 3 µM, first compound 3 µM). In addition, the viability, T/C (second compound 9.49 µM, first compound 0.00949 µM) was 32.2%; the viability, T/C (second compound 9.49 µM, first compound 0.03 µM) was 24.5%; the viability, T/C (second compound 9.49 µM, first compound 0.0949 µM) was 22.6%; the viability, T/C (second compound 9.49 µM, first compound 0.3 µM) was 20.6%; the viability, T/C (second compound 9.49 µM, first compound 0.949 µM) is 15.6%; the viability, T/C (second compound 9.49 µM, first compound 3 µM) was 10.9%. Further, the viability, T/C (second compound 30 µM, first compound 0.00949 µM) was 25.3%; the viability, T/C (second compound 30 µM, first compound 0.03 µM) was 21.2%; the viability, T/C (second compound 30 µM, first compound 0.0949 µM) was 18.4%; the viability, T/C (second compound 30 µM, first compound 0.3 µM) was 17.5%; the viability, T/C (second compound 30 µM, first compound 0.949 µM) is 13.8%; the viability, T/C (second compound 30 µM, first compound 3 µM) is 8.92%.

Regarding `COC1CC2CCC(C)C(O)(O2)C(=O)C(=O)N2CCCCC2C(=O)OC(C(C)CC2CCC(OCCO)C(OC)C2)CC(=O)C(C)C=C(C)C(O)C(OC)C(=O)C(C)CC(C)C=CC=CC=C1C` (centres undefined), the viability, T/C is, setting by setting: (compound 0.000316 µM) 83.9% and 83.3%; (compound 0.001 µM) 76.6% and 71.4%; (compound 0.00316 µM) 71.5% and 66.5%; (compound 0.01 µM) 64.1% and 59%; (compound 0.0316 µM) 59.8% and 64.2%; (compound 0.1 µM) 59.2% and 62.3%. The half-maximal inhibitory concentration (IC50) (curve of compound) is over 100 nM.
